Common to all, as to assay type: in vivo
Set-up in all cases: key: 5=total damage to plant; 0=no damage to plant

Experiment [1] deals with Alopecurus myosuroides (ALOMY). Nature of the experiment: Pre-emergence herbicidal activity, glasshouse pot test. The settings on record: sprayed one day after sowing, evaluated after 13 days. As to the method: (§1) Seeds of a variety of test species were sown in standard soil in pots: Triticum aestivium (TRZAW), Avena fatua (AVEFA), Alopecurus myosuroides (ALOMY), Echinochloa crus-galli (ECHCG), Lolium perenne (LOLPE), and Setaria faberi (SETFA). After cultivation for one day (pre-emergence) under controlled conditions in a glasshouse (at 24/16° C., day/night; 14 hours light; 65% humidity), the plants were sprayed with an aqueous spray solution derived from the formulation of the technical active ingredient in acetone/water (50:50) solution containing 0.5% Tween 20 (polyoxyethelyene sorbitan monolaurate, CAS RN 9005-64-5). The test plants were then grown in a glasshouse under controlled conditions (at 24/16° C., day/night; 14 hours light; 65% humidity) and watered twice daily. After 13 days, the test was evaluated (5=total damage to plant; 0=no damage to plant).

Experiment [2] concerns Avena fatua (AVEFA). Described as above. As to conditions: sprayed one day after sowing, evaluated after 13 days. As to the method: as §1
In experiment [3] the test system is Echinochloa crus-galli (ECHCG). The description is as above. As to conditions: sprayed one day after sowing, evaluated after 13 days. The procedure: as §1
Experiment [4] concerns Lolium perenne (LOLPE). Described as above. The settings on record: sprayed one day after sowing, evaluated after 13 days. As to the method:
as §1

Experiment [5] deals with Setaria faberi (SETFA). The experiment is described as above. As to conditions: sprayed one day after sowing, evaluated after 13 days. As to the method: as §1
The subject of experiment [6] is Triticum aestivium (TRZAW). The description is as above. The settings on record: sprayed one day after sowing, evaluated after 13 days. As to the method: as §1
Experiment [7] concerns Alopecurus myosuroides (ALOMY). Put plainly: Post-emergence herbicidal activity, glasshouse pot test. The settings on record: sprayed after 8 days cultivation, evaluated after 13 days. The procedure:
(§2) Seeds of a variety of test species were sown in standard soil in pots: Triticum aestivium (TRZAW), Avena fatua (AVEFA), Alopecurus myosuroides (ALOMY), Echinochloa crus-galli (ECHCG), Lolium perenne (LOLPE), and Setaria faberi (SETFA). After 8 days cultivation (post-emergence) under controlled conditions in a glasshouse (at 24/16° C., day/night; 14 hours light; 65% humidity), the plants were sprayed with an aqueous spray solution derived from the formulation of the technical active ingredient in acetone/water (50:50) solution containing 0.5% Tween 20 (polyoxyethelyene sorbitan monolaurate, CAS RN 9005-64-5). The test plants were then grown in a glasshouse under controlled conditions (at 24/16° C., day/night; 14 hours light; 65% humidity) and watered twice daily. After 13 days, the test was evaluated (5=total damage to plant; 0=no damage to plant).

Experiment [8] deals with Avena fatua (AVEFA). Described as above. As to conditions: sprayed after 8 days cultivation, evaluated after 13 days. As to the method:
as §2

Experiment [9] has as its system Echinochloa crus-galli (ECHCG). Described as above. As to conditions: sprayed after 8 days cultivation, evaluated after 13 days. The procedure: as §2
The subject of experiment [10] is Lolium perenne (LOLPE). The experiment is described as above. As to conditions: sprayed after 8 days cultivation, evaluated after 13 days. The procedure: as §2
The test system of experiment [11] is Setaria faberi (SETFA). The experiment is described as above. As to conditions: sprayed after 8 days cultivation, evaluated after 13 days. As to the method: as §2
For experiment [12], the system named is Triticum aestivium (TRZAW). Described as above. The settings on record: sprayed after 8 days cultivation, evaluated after 13 days. As to the method: as §2

For `CSc1cncc(-c2cnc(NC(=O)OC(C)(C)C)c(SC)n2)c1` [Compound H25], in experiment [1] (Rate 250 g/ha), the “Control of weed species after pre-emergence application, ALOMY (damage score 0-5)” value stood at 0. Also, the “Control of weed species after pre-emergence application, AVEFA (damage score 0-5)” value in the experiment with Avena fatua (AVEFA) [2] (Rate 250 g/ha) was 0. Further, the “Control of weed species after pre-emergence application, ECHCG (damage score 0-5)” value in [3] (Rate 250 g/ha) is recorded as 0. Further, in the experiment on Lolium perenne (LOLPE) [4] (Rate 250 g/ha), the “Control of weed species after pre-emergence application, LOLPE (damage score 0-5)” value is given as 0. For the same compound, in the experiment with Setaria faberi (SETFA) [5] (Rate 250 g/ha), the “Control of weed species after pre-emergence application, SETFA (damage score 0-5)” value is 0. In experiment [6] (Rate 250 g/ha), the “Control of weed species after pre-emergence application, TRAZW (damage score 0-5)” value is given as 0. Also, the “Control of weed species after post-emergence application, ALOMY (damage score 0-5)” value in experiment [7] (Rate 250 g/ha) turned out to be 0. Also, in the experiment on Avena fatua (AVEFA) [8] (Rate 250 g/ha), the “Control of weed species after post-emergence application, AVEFA (damage score 0-5)” value was found to be 1. Moreover, the “Control of weed species after post-emergence application, ECHCG (damage score 0-5)” value in experiment [9] (Rate 250 g/ha) is listed as 1. In addition, the “Control of weed species after post-emergence application, LOLPE (damage score 0-5)” value in the experiment with Lolium perenne (LOLPE) [10] (Rate 250 g/ha) was 1. Besides, the “Control of weed species after post-emergence application, SETFA (damage score 0-5)” value with Setaria faberi (SETFA) [11] (Rate 250 g/ha) is on record as 1. Moreover, the “Control of weed species after post-emergence application, TRAZW (damage score 0-5)” value in experiment [12] (Rate 250 g/ha) came out at 0.
As to `CC(C)(C)OC(=O)Nc1ncc(-c2cncc(F)c2)nc1C#N` [Compound H10], the “Control of weed species after pre-emergence application, ALOMY (damage score 0-5)” value in experiment [1] (Rate 1000 g/ha) came to 0. In addition, the “Control of weed species after pre-emergence application, AVEFA (damage score 0-5)” value with Avena fatua (AVEFA) [2] (Rate 1000 g/ha) was determined as 0. The “Control of weed species after pre-emergence application, ECHCG (damage score 0-5)” value in experiment [3] (Rate 1000 g/ha) is on record as 2. For the same compound, the “Control of weed species after pre-emergence application, LOLPE (damage score 0-5)” value in the experiment with Lolium perenne (LOLPE) [4] (Rate 1000 g/ha) is on record as 0. In addition, the “Control of weed species after pre-emergence application, SETFA (damage score 0-5)” value in the experiment on Setaria faberi (SETFA) [5] (Rate 1000 g/ha) stood at 4. In experiment [6] (Rate 1000 g/ha), the “Control of weed species after pre-emergence application, TRAZW (damage score 0-5)” value is listed as 0. Besides, the “Control of weed species after post-emergence application, ALOMY (damage score 0-5)” value in experiment [7] (Rate 1000 g/ha) was determined as 0. In the experiment on Avena fatua (AVEFA) [8] (Rate 1000 g/ha), the “Control of weed species after post-emergence application, AVEFA (damage score 0-5)” value came to 1. Moreover, in experiment [9] (Rate 1000 g/ha), the “Control of weed species after post-emergence application, ECHCG (damage score 0-5)” value is reported as 2. For the same compound, the “Control of weed species after post-emergence application, LOLPE (damage score 0-5)” value in the experiment with Lolium perenne (LOLPE) [10] (Rate 1000 g/ha) stood at 1. Also, the “Control of weed species after post-emergence application, SETFA (damage score 0-5)” value with Setaria faberi (SETFA) [11] (Rate 1000 g/ha) is on record as 5. Further, in experiment [12] (Rate 1000 g/ha), the “Control of weed species after post-emergence application, TRAZW (damage score 0-5)” value was found to be 0.
For `CC(C)(C)OC(=O)N(C(=O)OC(C)(C)C)c1ncc(-c2cncc(F)c2)nc1C#N` [Compound H9], in [1] (Rate 1000 g/ha), the “Control of weed species after pre-emergence application, ALOMY (damage score 0-5)” value worked out at 0. Moreover, in the experiment with Avena fatua (AVEFA) [2] (Rate 1000 g/ha), the “Control of weed species after pre-emergence application, AVEFA (damage score 0-5)” value came to 1. In [3] (Rate 1000 g/ha), the “Control of weed species after pre-emergence application, ECHCG (damage score 0-5)” value is on record as 2. Besides, in the experiment with Lolium perenne (LOLPE) [4] (Rate 1000 g/ha), the “Control of weed species after pre-emergence application, LOLPE (damage score 0-5)” value is on record as 1. Further, in the experiment with Setaria faberi (SETFA) [5] (Rate 1000 g/ha), the “Control of weed species after pre-emergence application, SETFA (damage score 0-5)” value was found to be 5. Besides, the “Control of weed species after pre-emergence application, TRAZW (damage score 0-5)” value in experiment [6] (Rate 1000 g/ha) turned out to be 0. Also, the “Control of weed species after post-emergence application, ALOMY (damage score 0-5)” value in [7] (Rate 1000 g/ha) is recorded as 0. In the experiment on Avena fatua (AVEFA) [8] (Rate 1000 g/ha), the “Control of weed species after post-emergence application, AVEFA (damage score 0-5)” value is listed as 3. For the same compound, the “Control of weed species after post-emergence application, ECHCG (damage score 0-5)” value in experiment [9] (Rate 1000 g/ha) turned out to be 3. For the same compound, the “Control of weed species after post-emergence application, LOLPE (damage score 0-5)” value with Lolium perenne (LOLPE) [10] (Rate 1000 g/ha) was determined as 1. Further, the “Control of weed species after post-emergence application, SETFA (damage score 0-5)” value with Setaria faberi (SETFA) [11] (Rate 1000 g/ha) worked out at 5. For the same compound, in experiment [12] (Rate 1000 g/ha), the “Control of weed species after post-emergence application, TRAZW (damage score 0-5)” value is 0.
Turning to `CC(C)(C)OC(=O)OCc1nc(-c2cncc(F)c2)cnc1N(C(=O)OC(C)(C)C)C(=O)OC(C)(C)C` [Compound H18], the “Control of weed species after pre-emergence application, ALOMY (damage score 0-5)” value in [1] (Rate 1000 g/ha) turned out to be 0. Also, the “Control of weed species after pre-emergence application, AVEFA (damage score 0-5)” value in the experiment with Avena fatua (AVEFA) [2] (Rate 1000 g/ha) is reported as 0. For the same compound, the “Control of weed species after pre-emergence application, ECHCG (damage score 0-5)” value in experiment [3] (Rate 1000 g/ha) was determined as 3. Moreover, in the experiment on Lolium perenne (LOLPE) [4] (Rate 1000 g/ha), the “Control of weed species after pre-emergence application, LOLPE (damage score 0-5)” value came to 1. Further, the “Control of weed species after pre-emergence application, SETFA (damage score 0-5)” value with Setaria faberi (SETFA) [5] (Rate 1000 g/ha) is on record as 4. Besides, in [6] (Rate 1000 g/ha), the “Control of weed species after pre-emergence application, TRAZW (damage score 0-5)” value is 0. Also, the “Control of weed species after post-emergence application, ALOMY (damage score 0-5)” value in experiment [7] (Rate 1000 g/ha) was determined as 0. Further, the “Control of weed species after post-emergence application, AVEFA (damage score 0-5)” value in the experiment with Avena fatua (AVEFA) [8] (Rate 1000 g/ha) amounted to 1. Besides, in experiment [9] (Rate 1000 g/ha), the “Control of weed species after post-emergence application, ECHCG (damage score 0-5)” value came to 4. Further, the “Control of weed species after post-emergence application, LOLPE (damage score 0-5)” value in the experiment on Lolium perenne (LOLPE) [10] (Rate 1000 g/ha) is on record as 1. Also, the “Control of weed species after post-emergence application, SETFA (damage score 0-5)” value in the experiment with Setaria faberi (SETFA) [11] (Rate 1000 g/ha) was determined as 3. Also, the “Control of weed species after post-emergence application, TRAZW (damage score 0-5)” value in [12] (Rate 1000 g/ha) worked out at 0.

The values above are taken from patent publication US11434221B2, “Pyrazine-4-carbamate or -urea derivatives as herbicides” (Syngenta Participations AG, priority 2017, dated 2022).
